# Patent US20050060764A1, “Mouse model for bone metabolism” (priority 2003, published 2005)
# Strand notation (5' to 3'): a small letter for the sugar, then the base; units joined by * are phosphorothioate-linked, units joined directly phosphodiester-linked; [ ] holds rarer units or linkages, { } end groups; capitals alone tell only the bases. e = 2'-O-(2-methoxyethyl) (MOE); [5mC] = 5-methylcytosine; d = 2'-deoxy (DNA)
# Tested on: mouse RANKL mRNA
# Assay: Antisense inhibition of mouse RANKL mRNA levels in C2C12 cells, quantitative real-time PCR (Table 2)
# Format: cell-based
# Parameters: concentration or dose not given beside the values
# Conditions: averages from three experiments
# Method: Cells were seeded into 24-well plates (Falcon-353047 at a density of ˜10,000 cells/cm^2 for use in antisense oligonucleotide transfection.
# Cells are treated and data are obtained in triplicate. […] Cells were harvested 16-24 hours after oligonucleotide treatment.
# PCR reagents were obtained from Invitrogen Corporation, (Carlsbad, Calif.).
# Probes and primers to mouse RANKL were designed to hybridize to a mouse RANKL sequence, using published sequence information (GenBank accession number AF013170.1, incorporated herein as SEQ ID NO:ll). For mouse RANKL the PCR primers were: • forward primer: […] (SEQ ID NO:12) • reverse primer: […] (SEQ ID NO: 13) and • the PCR probe was: FAM-[…]-TAMRA (SEQ ID NO: 14) where FAM is the fluorescent reporter dye and TAMRA is the quencher dye. For mouse GAPDH the PCR primers were: • forward primer: […](SEQ ID NO:15) • reverse primer: […](SEQ ID NO:16) and the • PCR probe was: 5′ JOE-[…]-TAMRA 3′ (SEQ ID NO: 17) where JOE is the fluorescent reporter dye and TAMRA is the quencher dye.
# In accordance with the present invention, a second series of antisense compounds was designed to target different regions of the mouse RANKL RNA, using published sequences (GenBank accession number AF013170.1, incorporated herein as SEQ ID NO: 11). […] All cytidine residues are 5-methylcytidines. […] If present “N.D.” indicates “no data”.
row,Substance,% INHIB (inhibition of mouse RANKL mRNA levels)
1,"cctgacagatttcagtagcc (antisense e[5mC]*e[5mC]*eT*eG*eA*d[5mC]*dA*dG*dA*dT*dT*dT*d[5mC]*dA*dG*eT*eA*eG*e[5mC]*e[5mC]) [ISIS 180831, 2′-MOE gapmer targeted to mouse RANKL]",at least 40%
2,180827 (antisense eA*eG*e[5mC]*eT*eA*d[5mC]*dG*dA*dG*dT*dA*d[5mC]*d[5mC]*dT*dT*e[5mC]*eA*eG*eG*eG) [compound 180827],54%
3,"agcagactccgccacggccc (antisense eA*eG*e[5mC]*eA*eG*dA*d[5mC]*dT*d[5mC]*d[5mC]*dG*d[5mC]*d[5mC]*dA*d[5mC]*eG*eG*e[5mC]*e[5mC]*e[5mC]) [ISIS 180790, 2′-MOE gapmer targeted to mouse RANKL]",at least 40%
4,180796 (antisense eT*e[5mC]*eG*eG*e[5mC]*dT*dG*dG*d[5mC]*d[5mC]*d[5mC]*dG*dG*d[5mC]*dG*e[5mC]*eA*eT*eG*eG) [compound 180796],67%
5,"agctgaagatagtctgtagg (antisense eA*eG*e[5mC]*eT*eG*dA*dA*dG*dA*dT*dA*dG*dT*d[5mC]*dT*eG*eT*eA*eG*eG) [ISIS 180808, 2′-MOE gapmer targeted to mouse RANKL]",at least 40%
6,180800 (antisense eA*e[5mC]*eA*eT*eG*dG*dA*dG*d[5mC]*dG*dG*dG*dA*dG*dG*e[5mC]*eG*eG*e[5mC]*eG) [compound 180800],54%
7,180832 (antisense eG*eG*eA*eA*eA*dA*dA*dA*dA*dA*dG*dA*dA*dA*d[5mC]*e[5mC]*eA*eA*eA*eA) [compound 180832],0%
8,"tcttcactctccagagtcga (antisense eT*e[5mC]*eT*eT*e[5mC]*dA*d[5mC]*dT*d[5mC]*dT*d[5mC]*d[5mC]*dA*dG*dA*eG*eT*e[5mC]*eG*eA) [ISIS 180803, 2′-MOE gapmer targeted to mouse RANKL]",at least 40%
9,180821 (antisense e[5mC]*eA*eT*eT*eA*d[5mC]*dA*d[5mC]*d[5mC]*dT*dG*dA*dA*dA*dT*eA*eT*eA*eA*e[5mC]) [compound 180821],15%
10,"ccgccgagcagactccgcca (antisense e[5mC]*e[5mC]*eG*e[5mC]*e[5mC]*dG*dA*dG*d[5mC]*dA*dG*dA*d[5mC]*dT*d[5mC]*e[5mC]*eG*e[5mC]*e[5mC]*eA) [ISIS 180791, 2′-MOE gapmer targeted to mouse RANKL]",at least 40%
11,"atgttccacgaaatgagtct (antisense eA*eT*eG*eT*eT*d[5mC]*d[5mC]*dA*d[5mC]*dG*dA*dA*dA*dT*dG*eA*eG*eT*e[5mC]*eT) [ISIS 180813, 2′-MOE gapmer targeted to mouse RANKL]",at least 40%
12,"gccctgctccgcgatcgttc (antisense eG*e[5mC]*e[5mC]*e[5mC]*eT*dG*d[5mC]*dT*d[5mC]*d[5mC]*dG*d[5mC]*dG*dA*dT*e[5mC]*eG*eT*eT*e[5mC]) [ISIS 180793, 2′-MOE gapmer targeted to mouse RANKL]",at least 40%
13,180813 (antisense eA*eT*eG*eT*eT*d[5mC]*d[5mC]*dA*d[5mC]*dG*dA*dA*dA*dT*dG*eA*eG*eT*e[5mC]*eT) [compound 180813],48%
14,180820 (antisense e[5mC]*eT*eT*eA*eT*dT*dT*dG*d[5mC]*dA*dG*dG*dT*d[5mC]*d[5mC]*e[5mC]*eA*eG*e[5mC]*eG) [compound 180820],44%
15,"ggcttgcctcgctgggccac (antisense eG*eG*e[5mC]*eT*eT*dG*d[5mC]*d[5mC]*dT*d[5mC]*dG*d[5mC]*dT*dG*dG*eG*e[5mC]*e[5mC]*eA*e[5mC]) [ISIS 180805, 2′-MOE gapmer targeted to mouse RANKL]",at least 40%
16,180794 (antisense e[5mC]*e[5mC]*eG*eG*e[5mC]*dG*d[5mC]*dA*dT*dG*dG*d[5mC]*dG*d[5mC]*dG*eG*e[5mC]*eG*e[5mC]*e[5mC]) [compound 180794],0%
17,"tttattttgcttgcatagtt (antisense eT*eT*eT*eA*eT*dT*dT*dT*dG*d[5mC]*dT*dT*dG*d[5mC]*dA*eT*eA*eG*eT*eT) [ISIS 180828, 2′-MOE gapmer targeted to mouse RANKL]",at least 40%

row,Substance,% INHIB (inhibition of mouse RANKL mRNA levels)
1,180826 (antisense eT*eA*e[5mC]*eA*eA*dA*dG*dT*dG*d[5mC]*dA*d[5mC]*d[5mC]*dA*dG*eT*eT*eA*eA*eA) [compound 180826],33%
2,"gcatcggaatacctctccca (antisense eG*e[5mC]*eA*eT*e[5mC]*dG*dG*dA*dA*dT*dA*d[5mC]*d[5mC]*dT*d[5mC]*eT*e[5mC]*e[5mC]*e[5mC]*eA) [ISIS 180817, 2′-MOE gapmer targeted to mouse RANKL]",at least 40%
3,180818 (antisense eT*e[5mC]*eA*eG*eT*dG*dG*d[5mC]*dA*d[5mC]*dA*dT*dG*dT*d[5mC]*e[5mC]*eA*eG*eG*eG) [compound 180818],59%
4,"atgctaatttcttcaccagc (antisense eA*eT*eG*e[5mC]*eT*dA*dA*dT*dT*dT*d[5mC]*dT*dT*d[5mC]*dA*e[5mC]*e[5mC]*eA*eG*e[5mC]) [ISIS 180811, 2′-MOE gapmer targeted to mouse RANKL]",at least 40%
5,180798 (antisense e[5mC]*e[5mC]*eT*eT*e[5mC]*dG*dT*dG*dT*dG*dG*dG*dA*d[5mC]*dG*e[5mC]*e[5mC]*eG*eG*eG) [compound 180798],34%
6,"cttatttgcaggtcccagcg (antisense e[5mC]*eT*eT*eA*eT*dT*dT*dG*d[5mC]*dA*dG*dG*dT*d[5mC]*d[5mC]*e[5mC]*eA*eG*e[5mC]*eG) [ISIS 180820, 2′-MOE gapmer targeted to mouse RANKL]",at least 40%
7,180803 (antisense eT*e[5mC]*eT*eT*e[5mC]*dA*d[5mC]*dT*d[5mC]*dT*d[5mC]*d[5mC]*dA*dG*dA*eG*eT*e[5mC]*eG*eA) [compound 180803],55%
8,"tcagaattgcccgaccagtt (antisense eT*e[5mC]*eA*eG*eA*dA*dT*dT*dG*d[5mC]*d[5mC]*d[5mC]*dG*dA*d[5mC]*e[5mC]*eA*eG*eT*eT) [ISIS 180810, 2′-MOE gapmer targeted to mouse RANKL]",at least 40%
9,"acatggagcgggaggcggcg (antisense eA*e[5mC]*eA*eT*eG*dG*dA*dG*d[5mC]*dG*dG*dG*dA*dG*dG*e[5mC]*eG*eG*e[5mC]*eG) [ISIS 180800, 2′-MOE gapmer targeted to mouse RANKL]",at least 40%
10,"cagttccttctgcacggccc (antisense e[5mC]*eA*eG*eT*eT*d[5mC]*d[5mC]*dT*dT*d[5mC]*dT*dG*d[5mC]*dA*d[5mC]*eG*eG*e[5mC]*e[5mC]*e[5mC]) [ISIS 180804, 2′-MOE gapmer targeted to mouse RANKL]",at least 40%
11,180795 (antisense eG*e[5mC]*eT*eG*eG*d[5mC]*d[5mC]*d[5mC]*dG*dG*d[5mC]*dG*d[5mC]*dA*dT*eG*eG*e[5mC]*eG*e[5mC]) [compound 180795],62%
12,180810 (antisense eT*e[5mC]*eA*eG*eA*dA*dT*dT*dG*d[5mC]*d[5mC]*d[5mC]*dG*dA*d[5mC]*e[5mC]*eA*eG*eT*eT) [compound 180810],83%
13,180822 (antisense eA*eA*eT*e[5mC]*eA*dA*dA*dT*dA*d[5mC]*dT*dA*dT*dA*dG*e[5mC]*eA*e[5mC]*eA*eA) [compound 180822],24%
14,180830 (antisense eT*eG*eA*eA*eA*dG*dG*d[5mC]*dA*d[5mC]*d[5mC]*dT*dG*dG*dT*eG*eA*e[5mC]*e[5mC]*eA) [compound 180830],5%
15,180825 (antisense eG*eT*eA*e[5mC]*eA*dT*dT*dT*dA*dA*dA*dA*d[5mC]*dA*dT*eT*eA*eA*eA*eT) [compound 180825],25%
16,180831 (antisense e[5mC]*e[5mC]*eT*eG*eA*d[5mC]*dA*dG*dA*dT*dT*dT*d[5mC]*dA*dG*eT*eA*eG*e[5mC]*e[5mC]) [compound 180831],54%
